Source: ChEMBL document CHEMBL5230087, “Inhibitors of SARS-CoV-2 Entry: Current and Future Opportunities” (J Med Chem, 2020)
Square brackets hold non-standard residues; d marks the D form. Peptide text beside a SMILES is read from it. * marks the point of attachment. ξ: configuration not given here. ξF = NC(Cc1ccccc1)C(=O)O; Cbz = O=C(OCc1ccccc1)*

Assays:
[1] = Cytotoxicity against african green monkey Vero cells incubated for 3 days; type: toxicity, cell-based; conditions: chlorocebus sabaeus, time 3 day
[2] = Selectivity index, ratio of CC50 for African green monkey Vero cells to EC50 for SARS-CoV-2 nCoV-2019; type: toxicity; conditions: read-out: Selectivity Index
[3] = molecular target: T1, Angiotensin-converting enzyme 2 (Homo sapiens, UniProt Q9BYF1); test: Inhibition of human recombinant ACE2 at 50 uM using (7Mca-Y-V-A- D -A-P- K(Knp) as a flurogenic substrate measured after 10 mins by fluorescence based analysis
T1 sequence (Q9BYF1 whole entry): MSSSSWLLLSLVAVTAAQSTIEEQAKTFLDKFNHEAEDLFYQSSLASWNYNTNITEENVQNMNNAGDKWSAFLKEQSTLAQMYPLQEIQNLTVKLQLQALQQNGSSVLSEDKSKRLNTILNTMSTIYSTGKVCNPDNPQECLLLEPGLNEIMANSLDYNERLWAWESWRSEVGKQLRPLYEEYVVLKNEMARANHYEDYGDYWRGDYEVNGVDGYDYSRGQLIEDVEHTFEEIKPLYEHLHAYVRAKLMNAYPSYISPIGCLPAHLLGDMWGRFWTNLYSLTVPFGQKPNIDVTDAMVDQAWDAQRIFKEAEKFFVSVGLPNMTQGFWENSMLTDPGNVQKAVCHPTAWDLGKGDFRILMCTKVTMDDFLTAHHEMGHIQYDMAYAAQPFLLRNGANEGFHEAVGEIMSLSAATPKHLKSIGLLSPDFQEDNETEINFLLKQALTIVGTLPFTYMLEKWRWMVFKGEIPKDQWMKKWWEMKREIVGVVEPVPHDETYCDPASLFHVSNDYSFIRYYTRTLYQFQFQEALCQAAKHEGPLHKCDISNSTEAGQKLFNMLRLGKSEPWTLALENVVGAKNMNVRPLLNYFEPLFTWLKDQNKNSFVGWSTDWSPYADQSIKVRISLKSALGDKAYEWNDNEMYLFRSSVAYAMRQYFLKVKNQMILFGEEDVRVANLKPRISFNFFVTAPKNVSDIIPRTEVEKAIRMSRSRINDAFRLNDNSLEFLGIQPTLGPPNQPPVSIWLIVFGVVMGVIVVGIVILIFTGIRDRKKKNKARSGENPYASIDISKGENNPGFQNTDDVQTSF

[4] = Antiviral activity against pseudovirus SARS-CoV spike protein infected in HeLa cells over expressing ACE2 assessed as inhibition on pseudovirus infection incubated for 52 hrs by luminescence based microplate reader analysis; type: functional, cell-based
Ebolavirus = test: microbe, parasite or virus in culture; type: functional, organism-based; conditions: Orthoebolavirus
[5] = molecular target: T1, Angiotensin-converting enzyme 2; test: Binding affinity to ACE2 (unknown origin) at 10 uM assessed as inhibition constant
SARS-CoV = test: Antiviral activity against SARS-CoV infected in African green monkey Vero cells assessed as viral growth inhibition; type: functional, organism-based; conditions: Severe acute respiratory syndrome-related coronavirus
[6] = molecular target: T1, Angiotensin-converting enzyme 2; test: Inhibition of human ACE2 (unknown origin) at 0.5 uM
[7] = Inhibition of clathrin mediated endocytosis (unknown origin); parameters: species or system Homo sapiens
HeLa = test: Antiproliferative activity against human HeLa cells assessed as reduction in cell growth inhibition; type: functional, cell-based
[8] = Cytotoxicity against African green monkey Vero cells by MTT assay; type: toxicity, cell-based; conditions: chlorocebus sabaeus
Human coronavirus 229E [9] = test: Antiviral activity against HCoV-229E assessed as reduction of viral RNA level at 4 uM; type: functional, organism-based
[10] = Inhibition of MERS-CoV S protein RBD (E367 to Y606 residues) expressed in Fc portion of the human IgG1 in CHO cells by chromatography method; parameters: species or system Middle East respiratory syndrome-related coronavirus
SARS-CoV-2 = test: Antiviral activity against SARS-COV2 infected in African green monkey Vero B cells incubated for 48 hrs by ELISA; type: functional, organism-based; conditions: Severe acute respiratory syndrome coronavirus 2, Vero B
Human coronavirus 229E [11] = test: Antiviral activity against HCoV-229E; type: functional, organism-based
Human coronavirus OC43 = test: Antiviral activity against HCoV-OC43 assessed as viral growth inhibition; type: functional, organism-based; conditions: Betacoronavirus 1
[12] = Antiviral activity against HCoV-NL63 assessed as viral growth inhibition; type: functional, Human coronavirus NL63
Mus musculus = test: Antiviral activity against MERS-COV infected in BALB/c mouse at 5 mg/kg; type: functional, organism-based
[13] = Inhibition of MERS-CoV Main protease; parameters: species or system Middle East respiratory syndrome-related coronavirus

## O=c1cc(-c2ccc(O)c(O)c2)oc2cc(O)cc(O)c12 [LUTEOLIN]
[1]
  CC50 at 72 h: 155 µM
[2]
  selectivity ratio: 14.6

## CCC[C@@H]([C@@H](CC(C)C)C(=O)N[C@@H](CCCCNC(=O)OCc1ccccc1)C(=O)Nc1nccs1)N(O)C=O
[3]
  IC50: 0.001 µM

## CC(C)(C)OC(=O)N[C@@H](Cc1c[nH]c2ccccc12)C(=O)NNC(=O)OCC(=O)N1CCCc2ccccc21
[4]
  EC50: 0.273 µM
Ebolavirus
  EC50: 0.193 µM

## NCCNCCN1CC1
[5]
  Ki: 459 µM

## CC[C@H](C)[C@H](NC(=O)[C@H](C)NC(=O)[C@H](CCCCN)NC(=O)[C@H](CC(N)=O)NC(=O)[C@H](Cc1ccccc1)NC(=O)[C@H](CCC(N)=O)NC(=O)[C@H](CC(N)=O)NC(=O)[C@H](C)NC(=O)[C@@H](NC(=O)[C@H](CCC(N)=O)NC(=O)[C@H](CCCCN)NC(=O)[C@H](CCC(N)=O)NC(=O)[C@H](CC(N)=O)NC(=O)[C@H](CCC(=O)O)NC(=O)[C@@H](N)Cc1ccc(O)cc1)[C@@H](C)CC)C(=O)N[C@@H](CO)C(=O)N[C@@H](CCC(N)=O)C(=O)N[C@H](C(=O)N[C@@H](CCC(N)=O)C(=O)N[C@@H](CCC(=O)O)C(=O)N[C@@H](CO)C(=O)N[C@@H](CC(C)C)C(=O)N[C@H](C(=O)N[C@H](C(=O)N[C@H](C(=O)N[C@@H](CO)C(=O)N[C@H](C(=O)N[C@@H](C)C(=O)O)[C@@H](C)O)[C@@H](C)O)[C@@H](C)O)[C@@H](C)O)[C@@H](C)CC
SARS-CoV
  EC50: 1.61 µM

## CC(C)C[C@H](NC(=O)[C@@H]1CCCN1C(=O)[C@H](CO)NC(=O)[C@H](CS)NC(=O)[C@H](Cc1cnc[nH]1)NC(=O)[C@H](CO)NC(=O)[C@H](Cc1ccc(O)cc1)NC(=O)[C@H](CC(=O)O)NC(=O)CN)C(=O)N[C@@H](CCCNC(=N)N)C(=O)N[C@@H](Cc1ccc(O)cc1)C(=O)N[C@@H](Cc1ccc(O)cc1)C(=O)N1CCC[C@H]1C(=O)N[C@@H](Cc1c[nH]c2ccccc12)C(=O)N[C@@H](Cc1c[nH]c2ccccc12)C(=O)N[C@@H](CCCCN)C(=O)N[C@@H](CS)C(=O)N[C@H](C(=O)N[C@@H](Cc1ccc(O)cc1)C(=O)N1CCC[C@H]1C(=O)N[C@@H](CC(=O)O)C(=O)N1CCC[C@H]1C(=O)N[C@@H](CCC(=O)O)C(=O)NCC(=O)NCC(=O)NCC(=O)O)[C@@H](C)O
[6]
  IC50: 0.01 µM
[5]
  Ki: 0.0028 µM

## CC(CN1c2ccccc2Sc2ccccc21)N(C)C (configuration not stated) [PROMETHAZINE]
[7]
  IC50: 7.48 µM

## OC(COc1cccc(OCC(O)CN2CCCCC2)c1)CN1CCCCC1 (configuration not stated)
[4]
  EC50: 3 µM

## CN1CCN(CCOc2cc(OC3CCOCC3)c3c(Nc4c(Cl)ccc5c4OCO5)ncnc3c2)CC1 [SARACATINIB]
HeLa
  IC50: 2.4 µM
[8]
  CC50: > 50 µM
Human coronavirus 229E [9]
  IC50: 5.1 µM

## CC[C@H](C)[C@H](NC(=O)[C@H](Cc1ccc(O)cc1)NC(=O)[C@H](CO)NC(=O)[C@H](CCC(=O)O)NC(=O)[C@H](CC(N)=O)NC(=O)[C@H](CC(C)C)NC(=O)[C@H](C)NC(=O)[C@H](CCCCN)NC(=O)[C@@H](NC(=O)[C@@H](NC(=O)[C@H](CCC(N)=O)NC(=O)[C@H](CCC(N)=O)NC(=O)[C@H](CC(C)C)NC(=O)[C@H](CO)NC(=O)[C@H](CC(C)C)NC(=O)[C@H](CCSC)NC(=O)[C@H](CCC(=O)O)NC(=O)[C@H](Cc1ccc(O)cc1)NC(=O)[C@@H](NC(=O)[C@H](CC(C)C)NC(=O)[C@H](CC(=O)O)NC(=O)[C@H](CC(C)C)NC(=O)[C@H](CC(C)C)NC(=O)[C@@H](NC(=O)[C@@H](NC(=O)[C@H](CC(N)=O)NC(=O)[C@@H](NC(=O)[C@H](CCC(N)=O)NC(=O)[C@@H](NC(=O)[C@H](CC(C)C)NC(=O)[C@@H](N)CO)[C@@H](C)O)[C@@H](C)CC)[C@@H](C)O)[C@@H](C)O)[C@@H](C)O)C(C)C)C(C)C)C(=O)N[C@@H](CC(=O)O)C(=O)N[C@@H](CC(C)C)C(=O)N[C@@H](CCCCN)C(=O)N[C@@H](CCC(=O)O)C(=O)N[C@@H](CC(C)C)C(=O)O
[10]
  IC50: 0.6 µM
SARS-CoV-2
  EC50: > 1000 µM

## CC(C)CC(CC(=O)NO)C(=O)NC(C(=O)NC(C)C(=O)NCCN)C(C)(C)C (configuration not stated)
[3]
  IC50: 0.2 µM

## CCN(CC)CCCC(C)Nc1ccnc2cc(Cl)ccc12 (configuration not stated) [CHLOROQUINE]
[3]
  IC50: 1.13 µM
SARS-CoV-2
  IC50: 1.13 µM
[1]
  CC50 at 72 h: > 100 µM

## CC(C)[C@H](NC(=O)OCc1ccccc1)C(=O)NC(C=O)Cc1ccccc1 (stereo partly drawn) (Cbz-Val-[ξF]-aldehyde)
[4]
  EC50: 0.1 µM

## CC[C@H](C)[C@H](NC(=O)[C@H](C)NC(=O)[C@H](CCC(=O)O)NC(=O)[C@H](CCC(=O)O)NC(=O)[C@H](CC(C)C)NC(=O)[C@H](CCCCN)NC(=O)[C@H](CCCCN)NC(=O)[C@H](CCSC)NC(=O)[C@H](CCC(=O)O)NC(=O)[C@H](Cc1ccc(O)cc1)NC(=O)[C@H](CCC(=O)O)NC(=O)[C@H](CC(C)C)NC(=O)[C@H](CC(=O)O)NC(=O)[C@H](CC(C)C)NC(=O)[C@H](Cc1ccccc1)NC(=O)[C@@H](NC(=O)[C@@H](NC(=O)[C@H](CC(N)=O)NC(=O)[C@@H](NC(=O)[C@H](CCC(N)=O)NC(=O)[C@H](CC(=O)O)NC(=O)[C@H](CC(C)C)NC(=O)[C@@H](N)CO)[C@@H](C)CC)C(C)C)[C@@H](C)O)C(=O)N[C@@H](CCCCN)C(=O)N[C@@H](CCCCN)C(=O)N[C@@H](CC(C)C)C(=O)N[C@@H](CCC(=O)O)C(=O)N[C@@H](CCC(=O)O)C(=O)N[C@@H](CO)C(=O)N[C@@H](Cc1ccc(O)cc1)C(=O)N[C@H](C(=O)N[C@@H](CC(=O)O)C(=O)N[C@@H](CC(C)C)C(=O)N[C@@H](CCCCN)C(=O)N[C@@H](CCC(=O)O)C(=O)N[C@@H](CC(C)C)C(=O)O)[C@@H](C)CC
Human coronavirus 229E [11]
  IC50: 3.35 µM
Human coronavirus OC43
  IC50: 1.81 µM
[12]
  IC50: 6.02 µM
Mus musculus
  IC50: 2.38 µM
[13]
  IC50: 0.19 µM

## CC(C)CC(CC(=O)NO)C(=O)NC(Cc1ccc2ccccc2c1)C(=O)NC(C)C(N)=O (configuration not stated)
[3]
  IC50: 0.1 µM
